Experimental data reported in US20170020909A1, “METHODS OF TREATING GLAUCOMA USING AMP-ACTIVATED PROTEIN KINASE (AMPK) ACTIVATORS” (Massachusetts Eye and Ear Infirmary, priority 2014, published 2017).

Columns and labels:
SPARC = assay: Immunoblot of SPARC in conditioned media of human TM cells; assay type: cell-based; conditions: 24 hours
Method: (§1) FIGS. 5A-E. AICAR suppresses ECM proteins in primary human TM cells under basal and TGF-β2 stimulatory conditions. (A) Representative immunoblots of ECM proteins from conditioned media (CM) of human TM cells treated for 24 hours with PBS vehicle or 0.5 mM AICAR and (B) integrated band intensities calculated from those immunoblots. (C) Representative immunoblots of ECM proteins from CM of human TM cells under stimulation with 2.5 ng/mL TGF-β2. Cells were pre-incubated for 1 hour with PBS or 0.5 mM AICAR prior to full 24-hour treatment. (D) Mean integrated band intensities. Data in panels B and D are expressed as mean±SEM (*p<0.05 vs. PBS vehicle by student t-test; n=5-7). (E) Representative 10% acrylamide gels stained with Coomassie Brilliant Blue as a loading control. […]
(§2) At the conclusion of each experiment for matricellular and ECM protein detection, conditioned media (CM) from TM cell cultures was harvested and centrifuged at 5000 rpm for 10 minutes at 4° C. The supernatant was then concentrated (Amicon Ultra-4 Filter Unit, 10 kDa; Millipore, Milford, Mass.), and protein content quantified using the DC Protein Assay kit adhering to manufacturer's protocols (Bio-Rad, Hercules, Calif.). […] Samples were then centrifuged at 14,000 rpm for 15 minutes at 4° C. and protein content quantified. […]

collagen IV = assay: Immunoblot of collagen IV in conditioned media of human TM cells; assay type: cell-based; conditions: 24 hours
Method: as §1, §2

[1] = 0.5 mM AICAR vs PBS vehicle, basal
[2] = 0.5 mM AICAR, under TGF-β2 stimulation with 2.5 ng/mL

In the case of `NC(=O)c1ncn([C@@H]2O[C@H](CO)[C@@H](O)[C@H]2O)c1N` [AICAR, 5-Aminoimidazole-4-carboxamide riboside], the “change in SPARC (mean integrated band intensity)” value (SPARC; [1]) is reported as “no change”, the “decrease in SPARC level” value (SPARC; [2]) is reported as 64% and the “decrease in collagen IV (mean integrated band intensity)” value (collagen IV; [1]) is reported as 52%. The “decrease in collagen IV level” value (collagen IV; [2]) was 34%.
